Source: EP0973746B1, “SUBSTITUTED 3-CYANO QUINOLINES” (Wyeth Holdings Corporation, priority 1997, dated 1998)
pIC50: −log10 of the molar value. In brackets after ≈: the same amount, converted by molar mass. Several values for one entry are separate records, joined by “and”; a condition that tells them apart may be missing. Equal entries are not always repeated. Where two headings read alike, the source gives them in different places.

What was measured:
A431 = experiment: Inhibition of cancer cell growth as measured by cell number, A431; format: cell-based, human; settings: for IC50: Homo sapiens, A-431, 48 h;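 for all read-outs here: human A431 line, picked because it overexpresses epidermal growth factor receptor (EGFR)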
Text: (§1) The cell lines were chosen since they overexpressed epidermal growth factor receptor (EGFR) (i.e. A431) or HER2/neu (SKBR3), or had little to no expression of the these receptors (SW620, LOX, MCF7).

SKBR3 = experiment: Inhibition of cancer cell growth as measured by cell number, SKBR3; format: cell-based, human; settings: for IC50: Homo sapiens;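 for all read-outs here: SK-BR-3 cells were selected as a line overexpressing HER2/neu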
Text: as §1

[1] = biological target: T1, His-tagged cytoplasmic domain of EGFR (Homo sapiens, UniProt P00533); experiment: Inhibition of Epidermal Growth Factor Receptor Kinase (EGF-R) using recombinant enzyme; format: biochemical; settings: recombinant enzyme; RR-SRC peptide; average of the number of tests; read-out: IC50;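 note: radiometric kinase assay measuring radiolabeled phosphate transfer from ATP onto the peptide tyrosine by scintillation counting, control is reaction without compound, background subtracted, IC50 from dose-response curve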
T1 construct: containing the EGFR cDNA encoding amino acids 645 - 1186 preceded by Met-Ala-(His)6; made in house; host or cells: Sf9 cells, recombinant baculovirus vHcEGFR52
Experimental: The enzyme used in this assay is the His-tagged cytoplasmic domain of EGFR.
Compounds to be evaluated were made into 10 mg/mL stock solutions in 100% dimethylsulfoxide (DMSO). Prior to experiment, stock solutions were diluted to 500 µM with 100% DMSO and then serially diluted to the desired concentration with HEPES buffer (30 mM HEPES pH 7.4).
For the enzyme reaction, 10 µL of each inhibitor (at various concentrations) were added to each well of a 96-well plate. […] This was allowed to sit for 10 min on ice and was followed by the addition of 5 µl peptide (80 µM final conc.), 10µl of 4X Buffer (Table A), 0.25 µL ^33P-ATP and 12 µL H2O. The reaction was allowed to run for 90 min at room temperature and was followed by spotting the entire volume on to precut P81 filter papers. The filter discs were washed 2X with 0.5% phosphoric acid and radioactivity was measured using a liquid scintillation counter.
The % inhibition of the test compound was determined for at least three different concentrations and the IC50 value was evaluated from the dose response curve. […] CPM(control) is in units of counts per minute and was a number expressing the amount of radiolabeled ATP (g-33P) incorporated into the RR-SRC peptide substrate by the enzyme after 90 minutes at room temperature in the absence of test compound as measured by liquid scintillation counting. The CPM values were corrected for the background counts produced by ATP in the absence of the enzymatic reaction. The IC50 values reported in TABLE 2 are averages of the number of tests conducted.

SW620 = experiment: Inhibition of cancer cell growth as measured by cell number, SW620; format: cell-based, human; settings: for IC50: Homo sapiens, SW-620, 48 h, Table 8;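 for all read-outs here: SW620 was included as a cell line with little or no EGFR or HER2/neu expression, in contrast to receptor-overexpressing lines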
Text: as §1

[2] = biological target: recombinant human MEK 1 (MAPKK) and recombinant human ERK2 (MAPK); experiment: Mitogen Activated Protein Kinase (MAPK) assay, two component coupled MEK 1 / ERK2; format: biochemical; settings: separate entries for the same compound = evaluated more than one time;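 note: MEK 1-activated ERK2 phosphorylates MBP or Myc peptide with 33P-ATP, filter capture and scintillation counting, inhibitor preincubated with ERK2 30 min at 0 °C, inhibition relative to uninhibited control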
[3] = cell number, Sulforhodamine B, 48 hours exposure, Table 8
[4] = cell number, Sulforhodamine B, 48 hours exposure, Table 8, read-out: IC50 A431
[5] = SK-BR-3, cell number, Sulforhodamine B, 48 hours exposure, Table 8, read-out: IC50 SKBR3
[6] = cell number, Sulforhodamine B, 48 hours exposure, read-out: IC50 SW620
[7] = read-out: IC50 A431, cell number, Sulforhodamine B, 48 hours exposure, Table 8
[8] = SK-BR-3, 48 h, read-out: IC50 SKBR3, cell number, Sulforhodamine B, 48 hours exposure, Table 8
[9] = read-out: IC50 SW620, cell number, Sulforhodamine B, 48 hours exposure

For “4-Dimethylamino-but-2-enoic acid [4-(3-bromophenylamino)-3-cyano-quinolin-6-yl]-amide [Example 99]”, which “IC50 A431” value (A431; [3]) is on record?
The value was 0.3 µg/mL and 0.159 µg/mL.

What about the “IC50 SKBR3” value (SKBR3; [3]) of the same compound?
Its value is 0.1 µg/mL and 0.078 µg/mL.

What about the pIC50 [1] of the same compound?
The pIC50 was 7.52.

What does the source list for `CCOc1cc2ncc(C#N)c(NCc3ccc(OC)c(OC)c3)c2cc1OCC` [Example 63, 4-(3,4-Dimethoxyphenylmethylamino)-6,7-diethoxy-3-quinolinecarbonitrile]?
IC50 (A431; [4]): 0.095 µg/mL (≈ 0.233 µM); IC50 (SKBR3; [5]): 0.144 µg/mL (≈ 0.353 µM); IC50 (SW620; [6]): 0.208 µg/mL (≈ 0.51 µM); pIC50 [1]: ≤ 5.00; pIC50 [2]: < 4.00

How did the IC50 (A431; [4]) turn out when `CNCC=CC(=O)Nc1ccc2ncc(C#N)c(Nc3cccc(Br)c3)c2c1` [Example 101, 4-Methylamino-but-2-enoic acid [4-(3-bromophenylamino)-3-cyano-quinolin-6-yl]-amide] was run?
Its IC50 is greater than 10 µg/mL.

And the IC50 (SKBR3; [5])?
The IC50 was greater than 10 µg/mL.

What about the IC50 (SW620; [6]) of the same compound?
The IC50 was greater than 10 µg/mL.

And the pIC50 [1]?
The pIC50 was 7.00.

What about the pIC50 [2] of the same compound?
Its pIC50 is 4.70.

What does the source list for `COc1cccc(Nc2c(C#N)cnc3ccc(NC(=O)C#CCN4CCCCC4)cc23)c1` [Example 140, N-{3-cyano-4-[(3-methoxyphenyl)amino]-6-quinolinyl}-4-piperidino-2-butynamide]?
IC50 (A431; [7]): 0.02 µg/mL (≈ 0.0455 µM); IC50 (SKBR3; [8]): 0.02 µg/mL (≈ 0.0455 µM); IC50 (SW620; [9]): 0.1 µg/mL (≈ 0.228 µM); pIC50 [1]: 9.22; pIC50 [2]: < 4.00

`C=CC(=O)Nc1ccc2ncc(C#N)c(Nc3ccc(F)c(Cl)c3)c2c1` [Example 144, N-{4-[(3-Chloro-4-fluorophenyl)amino]-3-cyano-6-quinolinyl}-2-propenamide] was tested. Which pIC50 [1] did it give?
Its pIC50 is 7.19.

And the pIC50 [2]?
The pIC50 was 4.40.

For `CCN(CC)CC=CC(=O)Nc1ccc2ncc(C#N)c(Nc3ccc(F)c(Cl)c3)c2c1` [Example 146, N-{4-[(3-Chloro-4-fluorophenyl)amino]-3-cyano-6-quinoliny}-4-diethylamino-2-butenamide], which IC50 (A431; [4]) is on record?
Its IC50 is 0.03 µg/mL (≈ 0.0664 µM).

And the IC50 (SKBR3; [5])?
Its IC50 is 0.03 µg/mL (≈ 0.0664 µM).

And the IC50 (SW620; [6])?
The IC50 was 0.6 µg/mL (≈ 1.33 µM).

What about the pIC50 [1] of the same compound?
Its pIC50 is 7.52.

And the pIC50 [2]?
Its pIC50 is 5.22.

`CC#CC(=O)Nc1ccc2ncc(C#N)c(Nc3ccc(Sc4ccccc4)c(Cl)c3)c2c1` [Example 157] was tested. Which IC50 (A431; [7]) did it give?
Its IC50 is 3.26 µg/mL (≈ 6.95 µM).

What about the IC50 (SKBR3; [8]) of the same compound?
The IC50 was 2.6 µg/mL (≈ 5.55 µM).

And the IC50 (SW620; [9])?
The IC50 was 4.17 µg/mL (≈ 8.89 µM).

What about the pIC50 [1] of the same compound?
Its pIC50 is 7.35.

And the pIC50 [2]?
The pIC50 was 4.05.

Which IC50 (A431; [7]) does the source give for `C=CC(=O)Nc1ccc2ncc(C#N)c(Nc3cccc(C#N)c3)c2c1` [Example 160, N-[3-Cyano-4-[(3-cyanophenyl)amino]-6-quinolinyl}-2-propenamide] here?
Its IC50 is 0.2 µg/mL (≈ 0.589 µM).

And the IC50 (SKBR3; [8])?
Its IC50 is 0.5 µg/mL (≈ 1.47 µM).

And the IC50 (SW620; [9])?
The IC50 was 2.3 µg/mL (≈ 6.78 µM).

And the pIC50 [1]?
Its pIC50 is 8.70.

And the pIC50 [2]?
The pIC50 was 4.52.

Which results are given for `N#Cc1cccc(Nc2c(C#N)cnc3ccc(NC(=O)C#CCN4CCCCC4)cc23)c1` [Example 161, N-{3-Cyano-4-[(3-cyanophenyl)amino]-6-quinolinyl}-4-piperidino-2-butynamide]?
IC50 (A431; [7]): 0.1 µg/mL (≈ 0.23 µM); IC50 (SKBR3; [8]): 0.04 µg/mL (≈ 0.0921 µM); IC50 (SW620; [9]): 0.2 µg/mL (≈ 0.46 µM); pIC50 [1]: 9.46; pIC50 [2]: 4.26

How did the IC50 (A431; [7]) turn out when `C#Cc1cccc(Nc2c(C#N)cnc3ccc(NC(=O)C#CCN4CCCCC4)cc23)c1` [Example 166, N-{3-cyano-4-[(3-ethynylphenyl)amino]-6-quinolinyl)-4-piperidino-2-butynamide] was run?
Its IC50 is 0.02 µg/mL (≈ 0.0461 µM).

What about the IC50 (SKBR3; [8]) of the same compound?
The IC50 was 0.02 µg/mL (≈ 0.0461 µM).

And the IC50 (SW620; [9])?
Its IC50 is 0.04 µg/mL (≈ 0.0923 µM).

And the pIC50 [1]?
The pIC50 was 7.70.

What about the pIC50 [2] of the same compound?
Its pIC50 is less than 4.00.

With `CCCN(CC#CC(=O)Nc1ccc2ncc(C#N)c(Nc3cccc(Br)c3)c2c1)CCC` [Example 170] as the compound, how does the “IC50 A431” value (A431) read?
The value was 0.03 µg/mL (≈ 0.0595 µM).

And the “IC50 SKBR3” value (SKBR3)?
Its value is 0.03 µg/mL (≈ 0.0595 µM).

What about the “IC50 SW620” value (SW620) of the same compound?
The value was 0.1 µg/mL (≈ 0.198 µM).

And the pIC50 [1]?
The pIC50 was 7.22.

What about the pIC50 [2] of the same compound?
The pIC50 was less than 4.00.

Which results are given for `CN(C)CC=CC(=O)Nc1ccc2ncc(C#N)c(Nc3ccc(F)c(Br)c3)c2c1` [Example 172, N-{4-[(3-Bromo-4-fluorophenyl)amino]-3-cyano-6-quinolinyl} -4-dimethylamino-2-butenamide]?
IC50 (A431; [4]): 0.255 µg/mL (≈ 0.544 µM); IC50 (SKBR3; [5]): 0.067 µg/mL (≈ 0.143 µM); IC50 (SW620; [6]): 1.59 µg/mL (≈ 3.4 µM); pIC50 [1]: 8.30; pIC50 [2]: 4.05

`CCN(CC)CC=CC(=O)Nc1ccc2ncc(C#N)c(Nc3ccc(F)c(Br)c3)c2c1` [Example 173, N-{4-[(3-Bromo-4-fluorophenyl)amino]-3-cyano-6-quinolinyl}-4-diethylamino-2-butenamide] was tested. Which pIC50 [1] did it give?
Its pIC50 is 7.52.

What about the pIC50 [2] of the same compound?
Its pIC50 is 5.10.

How did the IC50 (A431; [7]) turn out when `COc1cc2ncc(C#N)c(Nc3ccc(F)c(Br)c3)c2cc1NC(=O)C=CCN1CCOCC1` [Example 175, N-{4-[(3-Bromo-4-fluorophenyl)amino]-3-cyano-7-methoxy-6-quinolinyl}-4-morpholino-2-butenamide] was run?
The IC50 was 0.144 µg/mL (≈ 0.266 µM).

What about the IC50 (SKBR3; [8]) of the same compound?
The IC50 was 0.18 µg/mL (≈ 0.333 µM).

And the IC50 (SW620; [9])?
Its IC50 is 4.95 µg/mL (≈ 9.16 µM).

And the pIC50 [1]?
Its pIC50 is 6.52.

Which IC50 (A431; [7]) does the source give for `CN(C)C/C=C\C(=O)Nc1ccc2ncc(C#N)c(Nc3ccc(F)c(Cl)c3)c2c1` [Example 184, N-[4-[(3-Chloro-4-fluorophenyl)amino]-3-cyano-6-quinolinyl]-4-dimethylamino-(Z)-2-butenamide] here?
The IC50 was 0.158 µg/mL (≈ 0.373 µM).

And the IC50 (SKBR3; [8])?
Its IC50 is 0.3 µg/mL (≈ 0.708 µM).

And the IC50 (SW620; [9])?
The IC50 was 0.463 µg/mL (≈ 1.09 µM).

And the pIC50 [1]?
The pIC50 was 5.77.
